The text below walks through data of patent publication US10035791B2, “Bicyclic compound and pharmaceutical composition thereof for treating stroke and use thereof” (China Medical University, priority 2016, dated 2018).

Assay [1] concerns Bmi-1. In words: Bmi-1 expressions in the brains of the ischemic rats, Western blot. It is filed as in vivo, Sprague-Dawley (SD) rats. The source says: (§1) The ischemic rats are induced by an ischemia-reperfusion model to simulate transient focal cerebral ischemia in rats. Test animals are male Sprague-Dawley (SD) rats weighing 250-300 g. The rats are anesthetized with chloral hydrate (0.4 g/kg IP) and subjected to cerebral ischemia. The ischemia-reperfusion model is induced by ligations of bilateral common carotid arteries (CCAs) and a right middle cerebral artery (MCA). The bilateral CCAs are clamped with non-traumatic arterial clips, and the right MCA is ligated with an 10-0 nylon suture. After 90 minutes ischemia, the suture on the MCA and the arterial clips on CCAs are removed to allow reperfusion. Core body temperature is monitored with a thermistor probe (Hewlett-Packard Model 21090A probe, Hewlett-Packard Company, Andover, Mass.), and maintained at 37° C. with a heating pad during anesthesia. After recovery from anesthesia, rat body temperature is maintained at 37° C. with a heat lamp.
The ischemia-reperfusion model is established as described above. The ischemic rats are injected intraperitonealy with different dosages of the Compound 1 (0.1 mg/kg, 1 mg/kg and 10 mg/kg) at 4 hours after MCA ligation for three consecutive days. Sham rats undergo same protocol with the exception of the ligation of the bilateral CCAs and the right MCA. The rats only injected a vehicle are used as the control. The ischemic rats are decapitated at 4 hours, 16 hours, 24 hours, 36 hours and 72 hours after the Compound 1 injection. The Bmi-1 expressions and the HIF-1α expressions of the ischemic rats are detected by the Western blot analysis.
The ischemic rats are further treated with 100 mg/kg of the 2-ME2 or stereotaxic injected with the LV-Bmi-1-sh or the LV-control-sh to inhibit the HIF-1α expressions and the Bmi-1 expressions, and then the ischemic rats are treated with 1 mg/kg of the Compound 1. The effect of the administration of the Compound 1 on the Bmi-1 expressions in the brains of the ischemic rats which are reduced the Bmi-1 expressions or the HIF-1α expressions are detected by the Western blot analysis.
(A western blot detects proteins with antibodies after separation by electrophoresis.)

For assay [2], the system named is Bmi-1. As to the kind of experiment: Bmi-1 expressions of the NSCs, Western blot. It is filed as cell-based, mice. The protocol:
To prepare the NSCs, after removal of meninges, subventricular zones (SVZ) of lateral ventricles from adult mice brain (4 week-of-age) are aseptically isolated and dissociated as previously described (J Cell Sci 2006; 119, 4467-4474). All steps are operated under sterile conditions. Then, neurosphere culture are prepared in neurobasal (NB) medium (Gibco BRL) supplemented with 2% of B27 (Gibco BRL), 2 mM of L-glutamine (PAN Biotech), 100 U/ml of penicillin/0.1 […] of streptomycin (Gibco BRL). For maintenance and expansion of the cultures, the NB/B27 is further supplemented with 2 μg/mL of heparin (Sigma), 20 ng/mL of FGF-2 (R&D Systems) and 20 ng/mL of EGF (R&D Systems). Neurosphere cultures are maintained at 37° C. in a humidified incubator with 5% CO2. For clonal/low density cultures, primary neurospheres grown at high density are dissociated into a single cell suspension and reseeded into 96-well plates at 100 cells per ml of media and the number of newly formed neurospheres is counted after 7 days. In addition, the Bmi-1 expressions, SOX2 expressions, Nestin expressions, Musashi-1 expressions, BrdU expressions and ki-67 expressions of the newly formed neurospheres are determined by the immunofluorescence staining. […]
The NSCs are exposed to the various dosages of the Compound 1 (0.1 μM, 1 μM, 10 μM and 100 μM) and cultured in the neurosphere culture. The HIF-1α expressions and the Bmi-1 expressions of the NSCs are detected by the Western blot analysis. […]
In another example, the HIF-1α expressions of the NSCs are inhibited and then 1 μM of the Compound 1 is added into the medium of the NSCs. The HIF-1α expression and the Bmi-1 expressions of the NSCs are detected by the Western blot analysis. […]
In still another example, the NSCs are exposed to 1 μM of the Compound 1 and further cultured for various lengths of time (0.5 hour, 1 hour, 4 hours, 8 hours, 16 hours and 24 hours). The HIF-1α expressions and the Bmi-1 expressions of the NSCs are detected by the Western blot analysis. […]

The subject of assay [3] is Bmi-1. As to the kind of experiment: Bmi-1 expressions of the NSCs in the SVZ and the DG of the ischemic rats, immunofluorescence staining. It is filed as in vivo, Sprague-Dawley (SD) rats.
Assay [4] has as its system NSC in the brain of the ischemic rats. In words: Proliferation marker expressions (BrdU, ki-67) in the SVZ and DG of the ischemic rats. It is filed as in vivo, Sprague-Dawley (SD) rats.
Excerpt: as §1
The ischemic rats treated with different dosages of the Compound 1 (0.1 mg/kg, 1 mg/kg and 10 mg/kg) and the ischemic rats reduced the Bmi-1 expressions or the HIF-1α expressions and then treated with 1 mg/kg of the Compound 1 are decapitated, and the brain tissues thereof are performed the immunofluorescence staining to detect the proliferation marker expressions (BrdU and ki-67) in the brains of the ischemic rats.

The mark [5] stands for this setting: 2-ME2 treatment plus 1 mg/kg Compound 1.

With `COc1cc2c(cc1O)CC[C@@H]1[C@@H]2CC[C@]2(C)[C@@H](O)CC[C@@H]12` [Compound 2-ME2, 2-Methoxyestradiol, reference compound], the “increased Bmi-1 expressions by the Compound 1 treatment in brains of ischemic rats” value with Bmi-1 [1] (100 mg/kg 2-ME2 plus 1 mg/kg Compound 1, FIG. 13C) is “inhibited”. The “enhancement of the Bmi-1 expressions induced by the Compound 1 in NSCs” value in the assay on Bmi-1 [2] (1 μM 2-ME2 for 16 hours, then 1 μM Compound 1, FIG. 10B) was “abolished”. The “Compound-1-induced enhancement of Bmi-1+Nestin+ NSCs numbers” value in the assay with Bmi-1 [3] (100 mg/kg 2-ME2 intraperitoneal plus 1 mg/kg Compound 1) is given as “inhibits”. Moreover, in assay [4] (setting [5]), the “Compound 1 increased numbers of the BrdU+ cells in the SVZ and the DG” value is reported as “abolishes”; the “Compound 1 increased numbers of the ki-67+ cells in the SVZ and the DG” value was “abolishes”.

Take `COC(=O)C1=CO[C@@H](O)[C@@H]2C(COC(=O)[C@@H](N)Cc3ccccc3)=CC[C@H]12` [Compound 1]: in the assay on Bmi-1 [1] (1 mg/kg, 4 to 72 hours after injection, FIG. 13A), the “treatment time with the highest Bmi-1 expression” value is 36 h. In the assay on Bmi-1 [1] (0.1, 1, 10 mg/kg intraperitoneal, vs control and sham rats, FIGS. 13A to 13C), the “Bmi-1 expressions in the brains of the ischemic rats” value is listed as “significantly increases”. For the same compound, the “dosage with the highest Bmi-1 expression” value in the assay on Bmi-1 [1] (0.1, 1, 10 mg/kg tested, 36 hours, FIG. 13B) was determined as 1 mg/kg. The “exposure time at which the NSCs express the most Bmi-1” value in the assay with Bmi-1 [2] (1 μM, 0.5 to 24 hours tested, FIG. 10C) was 16 h. Besides, the “Bmi-1 expressions of the NSCs” value with Bmi-1 [2] (0.1, 1, 10, 100 μM, normoxia (21% O2), in particular 1 μM, FIG. 10A) is “increased”. In addition, the “number of Bmi-1+Nestin+ NSCs in the SVZ and the DG” value with Bmi-1 [3] (0.1, 1, 10 mg/kg vs control, in particular 1 mg/kg, FIGS. 14A to 14D) was “significantly increases”. In addition, the “numbers of BrdU+ cells in the SVZ and the DG of the brains of the ischemic rats” value in assay [4] (0.1, 1, 10 mg/kg vs control, in particular 1 mg/kg, FIGS. 15A to 15D) is on record as “significant enhancement”. For the same compound, in assay [4] (0.1, 1, 10 mg/kg vs control, in particular 1 mg/kg, FIGS. 15E to 15H), the “numbers of ki-67+ cells in the SVZ and the DG of the brains of the ischemic rats” value is recorded as “significant enhancement”.
